{"source": "patent US20180250260A1", "about": "“METHODS FOR TREATING CANCER” (BOSTON BIOMEDICAL, INC., priority 2015, published 2018)", "key": {"p-Stat3": {"system": "p-Stat3", "test": "Cancer stemness biomarker immunofluorescence in cancer xenograft tumors: p-Stat3", "assay_type": "in vivo, mouse xenograft", "details": "alone; cancer xenograft tumor model, FIG. 6", "procedure": "(§1) The effects of 2-acetylnaphtho[2,3-b]furan-4,9-dione, a compound of formula (I), on cancer stem cell markers was examined in cancer xenograft models with and without irinotecan. Human cancer cells were subcutaneously implanted into the right flank of 5-7 weeks old female athymic nude mice. When tumor size reached 200 mm^3, animals were treated with 2-acetylnaphtho[2,3-b]furan-4,9-dione, irinotecan, or a combination of 2-acetylnaphtho[2,3-b]furan-4,9-dione and irinotecan. Tumors were harvested after first dosing.\n(§2) The harvested tissues were fixed in 3.7% neutral buffered formaldehyde at 4° C. for overnight. The paraffin was embedded, cut to about 5 microns, and affixed onto positively-charged slides. After being baked and de-paraffinized, the slides with tumor or control tissues were incubated in 10 mM Sodium Citrate (pH 6.0) for 10 minutes. After antigen retrieval, slides were probed with primary antibodies P-STAT3 (rabbit, Cell Signaling, 1:100), 13-Catenine (mouse, Santa Cruz, 1:400) at 4° C. overnight, and then Alexa Fluor fluorescent dyes-conjugated secondary antibodies (1:500, Invitrogen). After mounting, the slides with ProLong mounting medium with DAPI (Invitrogen) were examined under a Zeiss fluorescence microscope with 20× objective, and analyzed with Zen software."}, "β-catenin": {"system": "β-catenin", "test": "Cancer stemness biomarker immunofluorescence in cancer xenograft tumors: β-catenin", "assay_type": "in vivo", "details": "alone; cancer xenograft tumor model, FIG. 6", "procedure": "as §1, §2"}}}
{"smiles": "CCc1c2c(nc3ccc(OC(=O)N4CCC(N5CCCCC5)CC4)cc13)-c1cc3c(c(=O)n1C2)COC(=O)[C@]3(O)CC", "note": "[irinotecan, reference compound]", "values": [{"measurement": "staining for stem cell marker p-Stat3", "setting": "p-Stat3", "value": "enhanced staining"}, {"measurement": "staining for stem cell marker β-catenin", "setting": "β-catenin", "value": "enhanced staining"}]}
